From EP3156398A1, “AGONISTS OF THE CHEMOKINE RECEPTOR CXCR3” (Friedrich-Alexander-Universität Erlangen-Nürnberg, priority 2015, dated 2017)

What was measured:
CXCR3-PK1 = target: T1, CXCR3-PK1 (Homo sapiens, UniProt P49682); assay: β-arrestin 2 recruitment assay (PathHunter, DiscoveRx), CXCR3-PK1 construct; type: cell-based; details: for CXCR3-PK1 pEC50 ± SEM: HEK293-T cells, PathHunter, two to three experiments in triplicate
T1 construct: expressed in transfected cells; host or cells: HEK293 cells stably expressing beta-gal enzyme acceptor (PathHunter, DiscoveRx), transiently transfected
T1 sequence (P49682 1-368): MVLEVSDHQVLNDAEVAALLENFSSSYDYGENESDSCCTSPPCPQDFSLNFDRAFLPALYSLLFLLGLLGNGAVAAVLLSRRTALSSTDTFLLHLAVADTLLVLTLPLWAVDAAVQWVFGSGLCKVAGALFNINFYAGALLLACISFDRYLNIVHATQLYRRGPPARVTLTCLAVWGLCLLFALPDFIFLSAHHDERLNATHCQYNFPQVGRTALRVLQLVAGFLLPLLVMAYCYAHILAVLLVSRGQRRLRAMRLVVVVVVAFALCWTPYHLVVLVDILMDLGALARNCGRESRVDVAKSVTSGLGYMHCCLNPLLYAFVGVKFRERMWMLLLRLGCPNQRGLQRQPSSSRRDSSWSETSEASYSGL
In short: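 HEK293 cells stably expressing β-gal enzyme acceptor, transiently transfected with PK1-tagged wild-type CXCR3, seeded overnight at 37°C. Test compounds or CXCL11 at various concentrations in PBS pH 7.4 with 0.20% BSA, 4 h; detection mix 60 min at room temperature. β-gal fragment complementation read by chemiluminescence.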

[1] = test system: HEK293 cells transiently transfected with CXCR3; assay: Transwell migration assay; type: cell-based, human; details: for influence on CXCL11 induced migration: cells pre-incubated 15 minutes, compound in both chambers, CXCL11 as chemoattractant, Figure 5B; for induced migration compared to buffer control: compound applied to the source reservoir, on its own, 5 h, Figure 5A
Protocol: Transwell migration assay. HEK-293 cells were maintained in DMEM medium supplemented with 10% FBS and 1% penicillin/streptomycin. For DNA transfection, 5 µg plasmid DNA (CXCR3) was mixed with TE buffer to give a final of 105 µl solution and 15 µl CaCl2 (2M) was added. The DNA mixture was then dripped into 120 µl 2x HBSS solution, and the mixture was allowed to form calcium-phosphate precipitates for 45 minutes. The DNA/calcium-phosphate precipitate was dripped onto HEK293 cells (50% confluent in T25 flask), where the medium had been renewed and reduced to 1.5 ml 30 minutes prior to transfection. The cells were split and used for assays 48 h after transfection.
Migration of serum-starved HEK293 cell transiently transfected with CXCR3 was assessed using Transwell™ membranes (Costar; 8-µm pore). Filters were coated with 10 µg•mL^-1 fibronectin (in PBS 30 minutes at room temperature). The fibronectin solution was removed and the filters allowed to air-dry. The filters were placed in a 24-well dish that contained low serum (0.2%) DMEM supplemented with agonists or control buffer. HEK293 cells suspended in 0.2% serum DMEM containing test compounds were added to the upper chamber (1 × 10^5 cells/well). Cells were allowed to migrate for 5 h at 37 °C. Nonmigrated cells were removed from the top filter surface with a cotton swab. Migrated cells, attached to the bottom surface, were fixed in 3.7% formaldehyde (in PBS) and dyed with crystal violet. Transmigrated cells were counted in 5 predefined areas on the membrane using 20X objective.
To investigate the influence of FAUC1036 and FAUC1104 on CXCR3 induced migration, the inventors used these compounds alongside CXCL11 in a standard transwell assay with HEK293 cells transiently transfected with CXCR3. […] To test whether FAUC1036 and FAUC1104 influence CXCL11 induced migration, the inventors pre-incubated the cells with these compounds for 15 minutes and then set up the migration assay in the presence of either compound in both the top chamber (sink) containing the cells and in the lower chamber (source) containing CXCL11 as chemoattractant.

COc1ccc(C(=O)CCC(=O)N2Cc3ccccc3C[C@H]2C(=O)NCCCC[C@H](NC(=O)OC(C)(C)C)C(=O)NCC(c2ccccc2)c2ccccc2)cc1 [Compound 14, Tert-butyl ((S)-1-((2,2-diphenylethyl)amino)-6-((S)-2-(4-(4-methoxyphenyl)-4-oxobutanoyl)-1,2,3,4-tetrahydroisoquinoline-3-carboxamido)-1-oxohexan-2-yl)carbomate]
β-arrestin 2 recruitment, intrinsic agonism (result in words) (CXCR3-PK1): complete loss of intrinsic agonistic properties | CXCR3-PK1 pEC50 ± SEM (CXCR3-PK1; CXCR3-PK1): No effect | chemotaxis (result in words) [1]: strong chemotaxis | influence on CXCL11 induced migration [1]: significantly higher CXCL11 induced migration | induced migration compared to buffer control [1]: approximately 0.25 fold

CC(C)(C)OC(=O)N[C@@H](CCCCNC(=O)[C@@H]1Cc2ccccc2CN1C(=O)CCC(=O)c1ccccc1)C(=O)NCC(c1ccccc1)c1ccccc1 [Compound 11, Tert-butyl ((S)-1-((2,2-diphenylethyl)amino)-1-oxo-6-((S)-2-(4-oxo-4-phenylbutanoyl)-1,2,3,4-tertahydroisoquinoline-3-carboxamido)hexan-2-yl)carbamate]
β-arrestin 2 recruitment, intrinsic agonism (result in words) (CXCR3-PK1): activates the β2-arrestin recruitment | CXCR3-PK1 efficacy (%) (CXCR3-PK1; % of CXCL11 mediated effect, CXCR3-PK1, listed as 11/FAUC103 6): 30±5% | Emax (CXCR3-PK1; % of CXCL11 mediated effect, CXCR3-PK1, read-out: CXCR3-PK1 efficacy (%) (converted)): 30% | CXCR3-PK1 pEC50 ± SEM (CXCR3-PK1; CXCR3-PK1, listed as 11/FAUC103 6): 6.64±0.38 | CXCR3-PK1 pEC50 ± SEM (CXCR3-PK1; CXCR3-PK1, listed as FAUC1036): 6.64 ± 0.38 | chemotaxis (result in words) [1]: weak chemotaxis | influence on CXCL11 induced migration [1]: no antagonizing effect | induced migration compared to buffer control [1]: approximately 0.25 fold
